Measurements from ChEMBL document CHEMBL1641565, “Discovery and optimisation of a selective non-steroidal glucocorticoid receptor antagonist” (Bioorg Med Chem Lett, 2011).
In brackets after ≈: the same amount, converted by molar mass.

What was measured:
[1] = molecular target: T1, Glucocorticoid receptor (Homo sapiens, UniProt P04150); assay: Binding affinity to human recombinant GR by competition ligand binding fluorescence polarization assay
T1 sequence (P04150 whole entry): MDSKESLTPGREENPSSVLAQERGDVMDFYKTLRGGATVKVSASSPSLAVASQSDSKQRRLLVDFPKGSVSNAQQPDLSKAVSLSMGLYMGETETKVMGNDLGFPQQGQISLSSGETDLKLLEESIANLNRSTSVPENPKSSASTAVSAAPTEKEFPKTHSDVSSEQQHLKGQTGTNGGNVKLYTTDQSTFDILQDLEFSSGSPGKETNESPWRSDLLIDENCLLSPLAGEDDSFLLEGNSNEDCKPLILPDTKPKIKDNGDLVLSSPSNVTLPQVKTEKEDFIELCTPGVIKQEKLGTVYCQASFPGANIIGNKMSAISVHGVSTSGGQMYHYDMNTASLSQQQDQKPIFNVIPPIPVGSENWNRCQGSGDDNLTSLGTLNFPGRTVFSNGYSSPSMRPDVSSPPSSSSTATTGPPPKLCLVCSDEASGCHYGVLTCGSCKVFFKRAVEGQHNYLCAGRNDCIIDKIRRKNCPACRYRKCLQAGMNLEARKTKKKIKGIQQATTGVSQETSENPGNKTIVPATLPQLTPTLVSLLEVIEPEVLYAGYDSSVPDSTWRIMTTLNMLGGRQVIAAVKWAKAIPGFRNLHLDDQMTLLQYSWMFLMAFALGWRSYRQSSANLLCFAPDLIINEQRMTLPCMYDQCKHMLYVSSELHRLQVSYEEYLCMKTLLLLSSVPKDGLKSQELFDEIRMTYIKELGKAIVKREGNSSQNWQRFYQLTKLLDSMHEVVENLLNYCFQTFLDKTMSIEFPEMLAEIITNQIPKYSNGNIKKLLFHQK

[2] = molecular target: T2, Progesterone receptor (Homo sapiens, UniProt P06401); assay: Binding affinity to human recombinant PR by competition ligand binding fluorescence polarization assay
T2 sequence (P06401 whole entry): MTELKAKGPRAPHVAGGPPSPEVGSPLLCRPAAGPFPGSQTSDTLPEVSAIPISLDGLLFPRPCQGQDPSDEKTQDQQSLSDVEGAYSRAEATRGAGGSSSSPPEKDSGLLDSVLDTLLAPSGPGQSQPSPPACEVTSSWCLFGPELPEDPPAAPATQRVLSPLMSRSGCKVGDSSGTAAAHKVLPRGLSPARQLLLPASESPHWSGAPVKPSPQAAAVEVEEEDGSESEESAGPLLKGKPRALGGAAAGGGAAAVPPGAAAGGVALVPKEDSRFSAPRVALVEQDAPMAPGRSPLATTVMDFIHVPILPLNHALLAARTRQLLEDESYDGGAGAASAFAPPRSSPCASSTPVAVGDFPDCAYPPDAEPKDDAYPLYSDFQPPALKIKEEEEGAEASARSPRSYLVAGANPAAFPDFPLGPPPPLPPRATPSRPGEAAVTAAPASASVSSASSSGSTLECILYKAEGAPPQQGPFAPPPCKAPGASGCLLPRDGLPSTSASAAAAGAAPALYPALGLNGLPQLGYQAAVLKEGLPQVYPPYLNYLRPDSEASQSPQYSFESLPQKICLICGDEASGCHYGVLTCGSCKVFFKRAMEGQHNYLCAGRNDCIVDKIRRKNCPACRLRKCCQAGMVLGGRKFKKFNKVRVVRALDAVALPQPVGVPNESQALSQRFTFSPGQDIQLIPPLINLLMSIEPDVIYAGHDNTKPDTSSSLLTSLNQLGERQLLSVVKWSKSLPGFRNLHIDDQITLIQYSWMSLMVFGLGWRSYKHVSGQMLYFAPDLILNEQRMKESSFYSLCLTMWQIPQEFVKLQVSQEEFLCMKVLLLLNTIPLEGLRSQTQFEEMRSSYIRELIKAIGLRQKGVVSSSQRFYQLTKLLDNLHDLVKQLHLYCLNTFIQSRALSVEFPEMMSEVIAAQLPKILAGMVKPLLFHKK

[3] = Intrinsic clearance in human liver microsomes measured per mg of protein; type: ADME, Microsome
[4] = Solubility of the compound in PBS at pH 7.4; type: physicochemical
[5] = Oral bioavailability in Wistar rat at 10 mg/kg; type: ADME, organism-based; settings: in vivo
[6] = Plasma clearance in Wistar rat at 2 mg/kg, iv; 10 mg/kg, po; type: ADME, organism-based
[7] = Intrinsic clearance in rat liver microsomes measured per mg of protein; type: ADME, Microsome
[8] = Volume of distribution at steady state in Wistar rat at 2 mg/kg, iv; 10 mg/kg, po; type: ADME, organism-based; settings: in vivo, read-out: Vdss
[9] = molecular target: T1, Glucocorticoid receptor; assay: Antagonist activity at human GR […] domain transfected in CHO cells co-transfected with MMTV-luciferase gene assessed as inhibition of cortisol-induced luciferase activity; type: cell-based
[10] = molecular target: T3, Mineralocorticoid receptor (Homo sapiens, UniProt P08235); assay: Antagonist activity at human MR ligand binding domain transfected in CHO cells co-transfected with MMTV-luciferase gene assessed as inhibition of cortisol-induced luciferase activity; type: cell-based
T3 sequence (P08235 whole entry): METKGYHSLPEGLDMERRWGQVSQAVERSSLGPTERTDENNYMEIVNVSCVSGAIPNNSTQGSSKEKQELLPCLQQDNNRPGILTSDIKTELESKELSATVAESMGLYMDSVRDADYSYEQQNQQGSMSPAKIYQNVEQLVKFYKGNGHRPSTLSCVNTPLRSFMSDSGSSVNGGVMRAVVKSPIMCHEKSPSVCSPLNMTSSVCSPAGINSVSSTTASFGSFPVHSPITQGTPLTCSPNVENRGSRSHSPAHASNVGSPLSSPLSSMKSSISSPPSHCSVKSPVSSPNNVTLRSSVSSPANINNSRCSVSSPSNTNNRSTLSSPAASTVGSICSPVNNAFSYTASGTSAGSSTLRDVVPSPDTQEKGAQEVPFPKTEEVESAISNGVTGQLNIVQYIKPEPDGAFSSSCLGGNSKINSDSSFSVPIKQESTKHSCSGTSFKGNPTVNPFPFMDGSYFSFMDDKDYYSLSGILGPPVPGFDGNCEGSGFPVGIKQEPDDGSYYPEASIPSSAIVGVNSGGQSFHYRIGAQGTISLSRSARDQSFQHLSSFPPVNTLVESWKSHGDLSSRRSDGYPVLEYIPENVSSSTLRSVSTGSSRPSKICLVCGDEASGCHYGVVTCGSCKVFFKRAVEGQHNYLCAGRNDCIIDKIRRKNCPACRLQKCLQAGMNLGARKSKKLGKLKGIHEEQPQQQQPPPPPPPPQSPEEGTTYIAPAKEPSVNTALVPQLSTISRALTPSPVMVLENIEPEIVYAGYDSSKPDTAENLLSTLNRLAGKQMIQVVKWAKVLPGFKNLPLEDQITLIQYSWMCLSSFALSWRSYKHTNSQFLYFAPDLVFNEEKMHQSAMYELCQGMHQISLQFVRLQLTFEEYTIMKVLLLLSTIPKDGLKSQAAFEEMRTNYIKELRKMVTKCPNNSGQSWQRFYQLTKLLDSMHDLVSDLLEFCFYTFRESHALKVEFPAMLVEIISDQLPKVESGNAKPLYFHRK

EC50 [1] | EC50 [2] | further results | SMILES
5.01 nM | 200 nM |  | COc1ccc(F)cc1-c1ccc([C@@H](C)NS(=O)(=O)c2c(C)noc2C)cc1
3.98 nM | 7.94 nM |  | Cc1noc(C)c1-c1ccc(CNS(=O)(=O)c2c(C)noc2C)cc1
1000 nM | > 10000 nM |  | Cc1noc(C)c1S(=O)(=O)NCc1ccc(-c2ccccc2)cc1
31.6 nM | 200 nM |  | COc1ccccc1-c1ccc(CNS(=O)(=O)c2c(C)noc2C)cc1
12.6 nM | 126 nM |  | COc1ccc(F)cc1-c1ccc(CNS(=O)(=O)c2c(C)noc2C)cc1
2 nM | 50.1 nM |  | COc1ccc(F)cc1-c1ccc(CNS(=O)(=O)c2cc(Cl)ccc2Cl)cc1
25.1 nM | 251 nM |  | COc1ccc(F)cc1-c1ccc([C@H](C)NS(=O)(=O)c2c(C)noc2C)cc1
25.1 nM | 794 nM |  | COc1ncccc1-c1ccc([C@@H](C)NS(=O)(=O)c2c(C)noc2C)cc1
10 nM | 631 nM | microsomal CLint [3]: > 270 µL/min/mg | Cc1noc(C)c1S(=O)(=O)N[C@H](C)c1ccc(-c2cccnc2OC(F)F)cc1
6.31 nM | 79.4 nM |  | COc1ncc(C#N)cc1-c1ccc([C@@H](C)NS(=O)(=O)c2c(C)noc2C)cc1
3.98 nM | 794 nM |  | COc1ccc(F)cc1-c1ccc([C@@H](C)NS(=O)(=O)c2cn(C)nc2C(F)(F)F)cc1
12.6 nM | > 10000 nM |  | COc1ncccc1-c1ccc([C@@H](C)NS(=O)(=O)c2cn(C)nc2C(F)(F)F)cc1
12.6 nM | > 10000 nM | microsomal CLint [3]: < 12 µL/min/mg; solubility [4]: 28.9 µg/mL (≈ 62.1 µM); bioavailability [5]: 42%; clearance [6]: 9.8 mL/min/kg; microsomal CLint [7]: < 12 µL/min/mg; Vd [8]: 0.7 L/kg; EC50 [9]: 100 nM; EC50 [10]: > 10000 nM | COc1ncc(C#N)cc1-c1ccc([C@@H](C)NS(=O)(=O)c2cn(C)nc2C(F)(F)F)cc1
